This is an account of results in patent US9834571B2, “Compounds for inhibiting cell proliferation in EGFR-driven cancers” (ARIAD Pharmaceuticals, Inc., priority 2012, dated 2017).

Each structure is given as a SMILES string. Like-named read-outs stand apart in the source and are kept apart here. A value given as a limit tells only on which side of the number the result lay.

Assay [1] deals with T1, BaF3 cells expressing the target EGFR mutations (Homo sapiens, UniProt P00533, T790M, cells depend on it, form not given).
T1 construct: IC50, BAF3 EGFR DEL T790M PURO POOL; other: BAF3 EGFR DEL T790M PURO POOL cells, MTT; other: BAF3 EGFR DEL T790M PURO POOL cells; MTT
Put plainly: Antiproliferative activity (MTT) against BaF3 cells expressing the target EGFR mutations. It counts as cell-based. Particulars: BAF3 EGFR DEL T790M PURO POOL cells, read-out: IC50, BAF3 EGFR DEL T790M PURO POOL. In outline: (§1)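 MTT read-out; BaF3 lines carrying EGFR mutations vs wildtype-EGFR BaF3 control.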

The target of assay [2] is T2, BaF3 cells expressing the target EGFR mutations (Homo sapiens, UniProt P00533, T790M/L858R, cells depend on it).
T2 construct: IC50, BAF3 EGFR L858R-T790M PURO POOL; other: BAF3 EGFR L858R-T790M PURO POOL cells, MTT; IC50, BAF3 EGFR L858R-T790M PURO POOL; other: BAF3 EGFR L858R-T790M PURO POOL cells; MTT
Described as above. The class given is cell-based. As to conditions: BAF3 EGFR L858R-T790M PURO POOL cells, read-out: IC50, BAF3 EGFR L858R-T790M PURO POOL. In outline: as §1

Assay [3] concerns the target human EGFR (native sequence) (Homo sapiens, UniProt P00533). Briefly: Kinase inhibitory activity against human EGFR (native sequence). The class given is biochemical. As to conditions: 10 μM ATP, read-out: IC50 for kinase inhibition, EGFR. In outline: (§2)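 Singlicate 10 pt curves; top conc. 3 μM; ATP 10 μM.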
For assay [4], the system named is BaF3 cells expressing wildtype EGFR. Put plainly: Antiproliferative activity (MTT) against control BaF3 cells expressing wildtype EGFR. The class given is cell-based. Particulars: Mus musculus. The essentials: as §1
The target of assay [5] is EGFR L858R/T790M (Homo sapiens, UniProt P00533, L858R/T790M). Briefly: Kinase inhibitory activity against EGFR bearing the L858R/T790M double mutation. The class given is biochemical. Particulars: 10 μM ATP, read-out: IC50 for kinase inhibition, EGFR L858R T790M. In outline: as §2
Assay [6] has as its target EGFR L858R (Homo sapiens, UniProt P00533, L858R). Put plainly: Kinase inhibitory activity against EGFR bearing the L858R mutation. It counts as biochemical. As to conditions: 10 μM ATP, read-out: IC50 for kinase inhibition, EGFR L858R. In outline: as §2
The mark [7] stands for this setting: 10 pt curves, 3 μM top concentration.
Setting [8] is: EGFR L858R/T790M double mutation.

T2 sequence (P00533 whole entry T790M/L858R): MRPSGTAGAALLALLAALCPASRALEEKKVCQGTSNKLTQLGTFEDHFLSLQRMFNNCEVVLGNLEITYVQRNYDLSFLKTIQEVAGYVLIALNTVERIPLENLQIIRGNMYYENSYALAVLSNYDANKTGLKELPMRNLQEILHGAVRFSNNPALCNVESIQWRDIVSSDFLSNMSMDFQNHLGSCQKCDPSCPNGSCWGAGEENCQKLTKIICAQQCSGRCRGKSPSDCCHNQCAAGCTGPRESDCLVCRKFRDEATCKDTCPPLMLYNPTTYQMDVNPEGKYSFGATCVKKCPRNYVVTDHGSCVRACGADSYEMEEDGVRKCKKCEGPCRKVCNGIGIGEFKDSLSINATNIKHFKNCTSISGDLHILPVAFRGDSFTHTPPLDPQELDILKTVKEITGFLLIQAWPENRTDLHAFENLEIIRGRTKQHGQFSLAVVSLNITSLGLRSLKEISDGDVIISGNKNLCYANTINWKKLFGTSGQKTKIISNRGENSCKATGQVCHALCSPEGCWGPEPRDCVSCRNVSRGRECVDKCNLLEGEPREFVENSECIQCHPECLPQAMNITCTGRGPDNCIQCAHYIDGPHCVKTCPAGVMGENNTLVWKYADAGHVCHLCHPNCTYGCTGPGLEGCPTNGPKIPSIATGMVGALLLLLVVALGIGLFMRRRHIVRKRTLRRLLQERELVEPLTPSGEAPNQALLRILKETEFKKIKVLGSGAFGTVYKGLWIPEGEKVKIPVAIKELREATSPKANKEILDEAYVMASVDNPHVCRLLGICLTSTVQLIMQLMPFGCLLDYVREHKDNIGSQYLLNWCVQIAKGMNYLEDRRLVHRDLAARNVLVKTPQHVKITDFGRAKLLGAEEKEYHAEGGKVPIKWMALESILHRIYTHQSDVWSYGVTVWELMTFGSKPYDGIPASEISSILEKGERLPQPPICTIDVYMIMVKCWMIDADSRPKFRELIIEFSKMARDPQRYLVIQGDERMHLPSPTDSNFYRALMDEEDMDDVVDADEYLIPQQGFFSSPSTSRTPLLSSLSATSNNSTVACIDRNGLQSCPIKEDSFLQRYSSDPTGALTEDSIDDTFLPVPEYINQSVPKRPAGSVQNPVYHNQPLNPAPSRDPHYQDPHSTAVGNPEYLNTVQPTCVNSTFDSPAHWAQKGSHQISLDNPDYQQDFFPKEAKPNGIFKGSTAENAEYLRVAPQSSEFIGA
T1 sequence (P00533 with tags, fused parts or gaps DEL746-750/T790M, form open): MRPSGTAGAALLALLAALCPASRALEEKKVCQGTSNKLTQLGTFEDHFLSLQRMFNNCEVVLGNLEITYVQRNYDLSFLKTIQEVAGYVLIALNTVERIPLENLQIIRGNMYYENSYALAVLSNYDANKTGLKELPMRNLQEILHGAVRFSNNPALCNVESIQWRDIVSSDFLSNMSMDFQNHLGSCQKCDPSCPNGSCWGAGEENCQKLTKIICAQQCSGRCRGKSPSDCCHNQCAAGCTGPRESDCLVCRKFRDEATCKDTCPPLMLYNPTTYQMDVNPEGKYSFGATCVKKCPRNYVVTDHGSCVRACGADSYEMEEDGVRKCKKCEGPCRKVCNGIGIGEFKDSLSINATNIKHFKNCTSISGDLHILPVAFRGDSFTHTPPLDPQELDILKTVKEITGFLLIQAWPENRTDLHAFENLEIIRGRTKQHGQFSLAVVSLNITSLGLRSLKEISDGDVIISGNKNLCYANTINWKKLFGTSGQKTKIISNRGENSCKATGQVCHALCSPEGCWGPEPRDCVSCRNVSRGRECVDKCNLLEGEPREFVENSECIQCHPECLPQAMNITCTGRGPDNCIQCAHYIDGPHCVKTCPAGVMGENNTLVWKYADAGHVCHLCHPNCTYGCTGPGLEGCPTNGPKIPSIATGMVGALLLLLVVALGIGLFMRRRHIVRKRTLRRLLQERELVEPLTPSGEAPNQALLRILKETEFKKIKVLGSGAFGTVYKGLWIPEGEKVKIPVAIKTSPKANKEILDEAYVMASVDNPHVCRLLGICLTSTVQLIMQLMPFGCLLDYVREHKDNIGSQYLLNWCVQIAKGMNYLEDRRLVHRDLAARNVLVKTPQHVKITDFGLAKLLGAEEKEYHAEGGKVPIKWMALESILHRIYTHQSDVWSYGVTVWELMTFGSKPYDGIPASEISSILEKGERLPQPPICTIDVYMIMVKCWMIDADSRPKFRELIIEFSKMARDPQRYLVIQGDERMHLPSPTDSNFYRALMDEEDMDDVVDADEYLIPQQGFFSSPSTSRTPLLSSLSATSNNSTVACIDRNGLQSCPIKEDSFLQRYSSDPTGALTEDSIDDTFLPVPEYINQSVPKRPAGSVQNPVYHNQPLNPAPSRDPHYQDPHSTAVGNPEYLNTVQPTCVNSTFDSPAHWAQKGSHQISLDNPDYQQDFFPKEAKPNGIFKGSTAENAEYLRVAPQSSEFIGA
human EGFR (native sequence), sequence (P00533 25-1210): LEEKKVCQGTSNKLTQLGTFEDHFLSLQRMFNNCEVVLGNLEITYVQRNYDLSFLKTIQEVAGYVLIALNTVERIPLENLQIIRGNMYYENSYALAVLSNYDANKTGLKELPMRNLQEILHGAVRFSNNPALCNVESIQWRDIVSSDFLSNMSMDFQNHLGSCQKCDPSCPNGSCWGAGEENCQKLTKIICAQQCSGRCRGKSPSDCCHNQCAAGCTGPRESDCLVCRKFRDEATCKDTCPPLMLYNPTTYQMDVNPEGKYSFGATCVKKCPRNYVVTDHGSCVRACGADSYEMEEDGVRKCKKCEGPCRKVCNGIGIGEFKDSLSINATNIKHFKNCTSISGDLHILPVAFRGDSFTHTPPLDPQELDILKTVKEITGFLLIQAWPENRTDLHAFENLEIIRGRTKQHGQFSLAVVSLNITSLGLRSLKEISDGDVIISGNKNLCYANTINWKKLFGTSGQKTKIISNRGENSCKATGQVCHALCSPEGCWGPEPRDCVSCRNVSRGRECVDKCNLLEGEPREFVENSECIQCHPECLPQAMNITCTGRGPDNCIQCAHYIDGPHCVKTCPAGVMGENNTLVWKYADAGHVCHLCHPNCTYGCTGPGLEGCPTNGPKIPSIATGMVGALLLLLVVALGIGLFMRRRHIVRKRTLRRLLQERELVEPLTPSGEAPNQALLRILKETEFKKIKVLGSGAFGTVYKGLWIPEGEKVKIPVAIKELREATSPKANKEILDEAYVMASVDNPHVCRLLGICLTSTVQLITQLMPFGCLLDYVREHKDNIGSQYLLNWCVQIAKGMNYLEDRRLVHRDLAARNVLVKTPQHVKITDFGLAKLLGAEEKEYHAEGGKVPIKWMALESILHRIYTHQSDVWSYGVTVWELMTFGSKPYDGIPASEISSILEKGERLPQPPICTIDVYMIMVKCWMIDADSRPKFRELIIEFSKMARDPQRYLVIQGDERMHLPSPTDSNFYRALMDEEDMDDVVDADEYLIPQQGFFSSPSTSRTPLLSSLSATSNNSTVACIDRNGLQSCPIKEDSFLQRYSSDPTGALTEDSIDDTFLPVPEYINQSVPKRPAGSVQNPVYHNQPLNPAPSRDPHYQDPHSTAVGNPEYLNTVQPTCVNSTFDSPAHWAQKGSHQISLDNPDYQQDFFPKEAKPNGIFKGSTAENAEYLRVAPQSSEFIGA
EGFR L858R/T790M, sequence (P00533 25-1210 T790M/L858R): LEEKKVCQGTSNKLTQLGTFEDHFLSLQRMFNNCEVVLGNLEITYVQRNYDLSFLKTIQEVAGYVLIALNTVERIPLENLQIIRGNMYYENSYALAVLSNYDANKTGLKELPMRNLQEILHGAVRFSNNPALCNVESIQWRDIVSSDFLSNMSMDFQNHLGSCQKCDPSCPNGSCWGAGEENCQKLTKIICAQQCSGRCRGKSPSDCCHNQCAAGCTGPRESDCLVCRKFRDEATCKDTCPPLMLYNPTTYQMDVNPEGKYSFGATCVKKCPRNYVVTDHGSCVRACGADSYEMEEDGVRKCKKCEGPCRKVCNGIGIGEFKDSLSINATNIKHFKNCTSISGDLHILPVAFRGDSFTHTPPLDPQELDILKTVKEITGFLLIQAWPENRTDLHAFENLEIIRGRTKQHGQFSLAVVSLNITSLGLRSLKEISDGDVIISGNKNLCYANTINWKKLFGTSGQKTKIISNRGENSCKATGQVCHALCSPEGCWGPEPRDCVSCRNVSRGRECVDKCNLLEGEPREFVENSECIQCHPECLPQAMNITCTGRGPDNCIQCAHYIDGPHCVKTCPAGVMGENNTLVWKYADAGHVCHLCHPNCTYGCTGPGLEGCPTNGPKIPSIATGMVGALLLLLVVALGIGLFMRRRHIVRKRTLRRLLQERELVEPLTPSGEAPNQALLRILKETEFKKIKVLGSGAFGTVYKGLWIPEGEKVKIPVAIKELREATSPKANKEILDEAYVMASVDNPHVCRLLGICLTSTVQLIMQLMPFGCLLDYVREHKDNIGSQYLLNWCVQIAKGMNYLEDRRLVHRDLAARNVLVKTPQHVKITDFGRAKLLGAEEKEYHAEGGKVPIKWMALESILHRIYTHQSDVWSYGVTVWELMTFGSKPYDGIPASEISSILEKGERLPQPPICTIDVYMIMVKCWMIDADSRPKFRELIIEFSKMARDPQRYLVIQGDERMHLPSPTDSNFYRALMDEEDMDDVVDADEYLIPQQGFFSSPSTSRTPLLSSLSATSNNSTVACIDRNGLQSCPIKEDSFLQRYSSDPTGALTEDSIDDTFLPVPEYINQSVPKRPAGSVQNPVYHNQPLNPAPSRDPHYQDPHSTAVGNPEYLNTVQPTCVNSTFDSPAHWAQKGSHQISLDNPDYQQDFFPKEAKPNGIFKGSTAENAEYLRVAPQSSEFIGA

For the compound `C=CC(=O)Nc1cc(Nc2ncc(Cl)c(Nc3ccccc3P(C)(C)=O)n2)c(OC)cc1O[C@@H](COC)CN(C)C` [Example 129, (R)-N-(5-((5-chloro-4-((2-(dimethylphosphoryl)phenyl)amino)pyrimidin-2-yl)amino)-2-((1-(dimethylamino)-3-methoxypropan-2-yl)oxy)-4-methoxyphenyl)acrylamide], the GI50 in assay [1] and in assay [2] was < 0.05 µM in each case. The half-maximal inhibitory concentration (IC50) in assay [3] (setting [7]) was < 0.05 µM; in assay [4] (BAF3 parental cells), ≥ 0.25 µM; in assay [5] (setting [7]), < 0.05 µM; in assay [6] (setting [7]) it was < 0.05 µM.
As for `C=CC(=O)Nc1cc(Nc2ncc(Cl)c(Nc3ccccc3P(C)(C)=O)n2)c(OC)cc1O[C@H]1CCCN(C)C1` (single isomer, unassigned) [Example 16], the GI50 in assay [1] and in assay [2] was < 0.05 µM in each case. The half-inhibitory concentration (IC50) in assay [3] (human EGFR native sequence) is < 0.05 µM; in assay [4] (BAF3 PARENTAL cells (control)), ≥ 0.25 µM; in assay [5] (setting [8]) it was < 0.05 µM; in assay [6] (EGFR L858R) it was < 0.05 µM.
Take `COc1ccc(NC(=O)CF)cc1Nc1ncc(Cl)c(Nc2ccccc2P(C)(C)=O)n1` [Example 147, N-(3-((5-chloro-4-((2-(dimethylphosphoryl)phenyl)amino)pyrimidin-2-yl)amino)-4-methoxyphenyl)-2-fluoroacetamide]: the GI50 in assay [1] and in assay [2] was ≥ 0.25 µM throughout. Besides, the IC50 is ≥ 0.25 µM in assay [3] (setting [7]), ≥ 0.25 µM in assay [4] (BAF3 parental cells), 0.101 to 0.25 µM in assay [5] (setting [7]) and 0.05 to 0.1 µM in assay [6] (setting [7]).
For the compound `C=CC(=O)Nc1cc(Nc2ncc(Cl)c(Nc3ccccc3P(C)(C)=O)n2)c(OC)cc1OC(CF)CN(CC)CC` (stereo not drawn) [Example 121, N-(5-((5-chloro-4-((2-(dimethylphosphoryl)phenyl)amino)pyrimidin-2-yl)amino)-2-((1-(diethylamino)-3-fluoropropan-2-yl)oxy)-4-methoxyphenyl)acrylamide], the GI50 in assay [1] and in assay [2] was < 0.05 µM in each case. For the same compound, the IC50 is < 0.05 µM in assay [3] (setting [7]), ≥ 0.25 µM in assay [4] (BAF3 parental cells), < 0.05 µM in assay [5] (setting [7]) and < 0.05 µM in assay [6] (setting [7]).
On to `COc1ccc(NC(=O)/C=C/CN2CCCC2)cc1Nc1ncc(Cl)c(Nc2ccccc2P(C)(C)=O)n1` [Example 95, (E)—N-(3-((5-chloro-4-((2-(dimethylphosphoryl)phenyl)amino)pyrimidin-2-yl)amino)-4-methoxyphenyl)-4-(pyrrolidin-1-yl)but-2-enamide], for which the results for the GI50 in assay [1] and in assay [2] were 0.05 to 0.1 µM and ≥ 0.25 µM, respectively. The IC50 in assay [3] (human EGFR native sequence) was ≥ 0.25 µM; in assay [4] (BAF3 PARENTAL cells (control)) it was ≥ 0.25 µM; in assay [5] (setting [8]) it was < 0.05 µM; in assay [6] (EGFR L858R), < 0.05 µM.
Take `C=CC(=O)Nc1cc(Nc2ncc(Cl)c(Nc3ccccc3P(C)(C)=O)n2)c(OC)cc1N1CCC(N2CCN(C)CC2)CC1` [Example 22, N-(5-((5-chloro-4-((2-(dimethylphosphoryl)phenyl)amino)pyrimidin-2-yl)amino)-4-methoxy-2-(4-(4-methylpiperazin-1-yl)piperidin-1-yl)phenyl)acrylamide]: the GI50 in assay [1] and in assay [2] was 0.05 to 0.1 µM in each case. The IC50 was < 0.05 µM in assay [3] (human EGFR native sequence), ≥ 0.25 µM in assay [4] (BAF3 PARENTAL cells (control)), < 0.05 µM in assay [5] (setting [8]) and < 0.05 µM in assay [6] (EGFR L858R).
In the case of `COc1cc(F)c(NC(=O)C#CCN2CCCC2)cc1Nc1ncc(Cl)c(Nc2ccccc2P(C)(C)=O)n1` [Example 89, N-(5-((5-chloro-4-((2-(dimethylphosphoryl)phenyl)amino)pyrimidin-2-yl)amino)-2-fluoro-4-methoxyphenyl)-4-(pyrrolidin-1-yl)but-2-ynamide], the GI50 in assay [1] and in assay [2] was < 0.05 µM each time. The half-maximal inhibitory concentration (IC50) was < 0.05 µM in assay [3] (human EGFR native sequence), ≥ 0.25 µM in assay [4] (BAF3 PARENTAL cells (control)), < 0.05 µM in assay [5] (setting [8]) and < 0.05 µM in assay [6] (EGFR L858R).
With `COCCC#CC(=O)Nc1cc(Nc2ncc(Cl)c(Nc3ccccc3P(C)(C)=O)n2)c(OC)cc1N1CCOCC1` [Example 115, N-(5-((5-chloro-4-((2-(dimethylphosphoryl)phenyl)amino)pyrimidin-2-yl)amino)-4-methoxy-2-morpholinophenyl)-5-methoxypent-2-ynamide], the GI50 in assay [1] and in assay [2] was < 0.05 µM each time. The IC50 was < 0.05 µM in assay [3] (setting [7]), ≥ 0.25 µM in assay [4] (BAF3 parental cells), < 0.05 µM in assay [5] (setting [7]) and < 0.05 µM in assay [6] (setting [7]).
`C=CC(=O)Nc1ccc(OC)c(Nc2ncc(Cl)c(Nc3ccc(OCCN4CCCCC4)cc3P(C)(C)=O)n2)c1` [Example 108, N-(3-((5-chloro-4-((2-(dimethylphosphoryl)-4-(2-(piperidin-1-yl)ethoxy)phenyl)amino)pyrimidin-2-yl)amino)-4-methoxyphenyl)acrylamide]: the GI50 in assay [1] and in assay [2] was < 0.05 µM in each case. The 50% inhibitory concentration (IC50) in assay [3] (setting [7]) was < 0.05 µM; in assay [4] (BAF3 parental cells), ≥ 0.25 µM; in assay [5] (setting [7]), < 0.05 µM; in assay [6] (setting [7]), < 0.05 µM.
`C=CC(=O)Nc1cc(Nc2ncc(Cl)c(Nc3ccccc3P(C)(C)=O)n2)c(OC)cc1N1CCC(N2CCC(O)C2)C1` (stereo not drawn) [Example 35, N-(5-((5-chloro-4-((2-(dimethylphosphoryl)phenyl)amino)pyrimidin-2-yl)amino)-2-(3-hydroxy-[1,3′-bipyrrolidin]-1′-yl)-4-methoxyphenyl)acrylamide]: the GI50 in assay [1] is 0.101 to 0.25 µM; in assay [2], ≥ 0.25 µM. For the same compound, the IC50 in assay [3] (human EGFR native sequence) was < 0.05 µM; in assay [4] (BAF3 PARENTAL cells (control)) it was ≥ 0.25 µM; in assay [5] (setting [8]), < 0.05 µM; in assay [6] (EGFR L858R), < 0.05 µM.
Turning to `COc1ccc(NC(=O)/C=C/Cl)cc1Nc1ncc(Cl)c(Nc2ccccc2P(C)(C)=O)n1` [Example 78, (E)-3-chloro-N-(3-((5-chloro-4-((2-(dimethylphosphoryl)phenyl)amino)pyrimidin-2-yl)amino)-4-methoxyphenyl)acrylamide], the GI50 in assay [1] and in assay [2] was < 0.05 µM each time. The half-inhibitory concentration (IC50) in assay [3] (human EGFR native sequence) was < 0.05 µM; in assay [4] (BAF3 PARENTAL cells (control)), ≥ 0.25 µM; in assay [5] (setting [8]), < 0.05 µM; in assay [6] (EGFR L858R), < 0.05 µM.
For `C=CC(=O)Nc1ccc(OC(F)(F)F)c(Nc2ncc(Cl)c(Nc3ccccc3P(C)(C)=O)n2)c1` [Example 134, N-(3-((5-chloro-4-((2-(dimethylphosphoryl)phenyl)amino)pyrimidin-2-yl)amino)-4-(trifluoromethoxy)phenyl)acrylamide], the GI50 in assay [1] and in assay [2] was < 0.05 µM in each case. Further, the IC50 is < 0.05 µM in assay [3] (setting [7]), ≥ 0.25 µM in assay [4] (BAF3 parental cells), < 0.05 µM in assay [5] (setting [7]) and < 0.05 µM in assay [6] (setting [7]).
`CC#CC(=O)Nc1cc(Nc2ncc(Cl)c(Nc3ccccc3P(C)(C)=O)n2)c(OC)cc1OCCN1CCCC1` [Example 80, N-(5-((5-chloro-4-((2-(dimethylphosphoryl)phenyl)amino)pyrimidin-2-yl)amino)-4-methoxy-2-(2-(pyrrolidin-1-yl)ethoxy)phenyl)but-2-ynamide]: the GI50 in assay [1] was < 0.05 µM; in assay [2] it was 0.101 to 0.25 µM. Besides, the half-inhibitory concentration (IC50) in assay [3] (human EGFR native sequence) was ≥ 0.25 µM; in assay [4] (BAF3 PARENTAL cells (control)) it was ≥ 0.25 µM; in assay [5] (setting [8]), < 0.05 µM; in assay [6] (EGFR L858R), < 0.05 µM.
In the case of `COc1cc(N2CCOCC2)c(NC(=O)C#CCCN2CCCCC2)cc1Nc1ncc(Cl)c(Nc2ccccc2P(C)(C)=O)n1` [Example 101, N-(5-((5-chloro-4-((2-(dimethylphosphoryl)phenyl)amino)pyrimidin-2-yl)amino)-4-methoxy-2-morpholinophenyl)-5-(piperidin-1-yl)pent-2-ynamide], the GI50 in assay [1] and in assay [2] was < 0.05 µM throughout. For the same compound, the half-inhibitory concentration (IC50) in assay [3] (human EGFR native sequence) is < 0.05 µM; in assay [4] (BAF3 PARENTAL cells (control)) it was ≥ 0.25 µM; in assay [5] (setting [8]) it was < 0.05 µM; in assay [6] (EGFR L858R), < 0.05 µM.
On to `C=CC(=O)Nc1ccc(OC)c(Nc2ncc(Cl)c(Nc3cnccc3P(C)(C)=O)n2)c1` [Example 164, N-(3-((5-chloro-4-((4-(dimethylphosphoryl)pyridin-3-yl)amino)pyrimidin-2-yl)amino)-4-methoxyphenyl)acrylamide], for which the GI50 was 0.101 to 0.25 µM in assay [1] and ≥ 0.25 µM in assay [2]. The half-inhibitory concentration (IC50) in assay [3] (setting [7]) is ≥ 0.25 µM; in assay [4] (BAF3 parental cells), ≥ 0.25 µM; in assay [5] (setting [7]) it was < 0.05 µM; in assay [6] (setting [7]), < 0.05 µM.

For orientation: IC50 means the concentration at which inhibition is half-maximal.
